We go through one molecule from patent publication US20190177279A1, “CARBOXYLIC ACID AROMATIC 1,2-CYCLOPROPYLAMIDES” (Bayer Pharma Aktiengesellschaft, priority 2017, published 2019).

Where two headings read alike, the source gives them in different places.

This experiment addresses T1, human B1 receptor (Homo sapiens, UniProt P46663).
T1 construct: host or cells: CHO-K1
T1 sequence (P46663 1-353): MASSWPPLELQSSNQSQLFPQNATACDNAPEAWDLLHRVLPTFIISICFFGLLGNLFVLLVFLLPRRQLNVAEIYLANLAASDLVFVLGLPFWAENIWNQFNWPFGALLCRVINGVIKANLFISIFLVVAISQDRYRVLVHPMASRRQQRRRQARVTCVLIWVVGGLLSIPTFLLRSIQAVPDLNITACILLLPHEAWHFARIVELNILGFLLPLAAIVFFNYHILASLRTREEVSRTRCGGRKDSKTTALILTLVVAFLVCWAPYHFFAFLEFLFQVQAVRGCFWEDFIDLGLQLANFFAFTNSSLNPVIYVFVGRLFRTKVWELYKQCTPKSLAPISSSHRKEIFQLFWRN
The experiment is described as follows: Calcium flux assay (FLIPR) with recombinant CHO-K1 cells expressing human B1 receptor. The note with it: agonist Lys-(Des-Arg)-Bradykinin. The format is cell-based. As to the method:
The potency to inhibit the Bradykinin B1 receptors was determined for the example compounds of this invention in a cell-based fluorescent calcium-mobilisation assay. The assay measures the ability of example compounds to inhibit Bradykinin B1 receptor agonist-induced increase of intracellular free Ca^2+ in the cell line expressing B1 receptor. Specifically, calcium indicator—loaded cells are pre-incubated in the absence or presence of different concentrations of example compounds followed by the stimulation with a selective B1 receptor agonist peptide. The change of the intracellular Ca^2+ concentration is monitored with a fluorescent plate reader FLIPR (Molecular Devices).
Calcium flux Assay (FLIPR) with recombinant cells for Bradykinin B1 receptor antagonist, either in the presence (hB1 IC50) or absence (hB1 free IC50) of 0.1% BSA in assay buffer
CHO-K1 cell line expressing human B1 receptor was purchased from Euroscreen (Gosselies, Belgium, with reference name hB1-D1). The cells were grown in Nutrient Mixture Ham's F12 (Sigma) containing 10% Foetal bovine serum (Sigma) and 400 μg/mL G418 (Sigma), 5 μg/mL puromycin (Sigma).
For the calcium flux assay, 80% confluent cells were detached from the culture vessels with Versene (Gibco), and seeded into 384-well plates (Cell binding Surface; Corning, N.Y.; #3683) at a density of 15,000 cells per well. Cells were seeded in a volume of 50 μL in medium without antibiotics and incubated overnight in a humidified atmosphere with 5% CO2 at 37° C. […] The calcium indicator loaded cells were incubated at 37° C. for 2 hrs. Extracellular dye was then removed and each well was filled with 45 μL of assay buffer. Cell plates were kept in dark until used. Example compounds were assayed at 8 concentrations in triplicate. Serial 10-fold dilutions in 100% DMSO were made at a 100-times higher concentration than the final concentration, and then diluted 1:10 in assay buffer. 5 μL of each diluted compound was added to the well of cell plates (yielding final concentration with 1% DMSO), and incubated for 30 min at 28° C. before the addition of B1 receptor agonist on the FLIPR instrument.
Agonist plates contained the agonist Lys-(Des-Arg)-Bradykinin (Bachem, Brackley) at 3.5×EC90 in assay buffer with 1% DMSO. The addition of agonist 20 μl per well to the assay plate was carried out on the FLIPR instrument while continuously monitoring Ca^2+-dependent fluorescence at 538 nm. A peptide antagonist Lys-(Des-Arg-Leu)-Bradykinin (Bachem, Brackley) at 20 µM was used to determine the full inhibition as control.
Peak fluorescence was used to determine the response to agonist obtained at each concentration of example compound by the following equation:
% Response=100*(RFU(example compound)−RFU(control)/(RFU(DMSO)−RFU(control)) • Control=full inhibition by the peptide antagonist Lys-(Des-Arg-Leu)-Bradykinin at 20 μM
The response values were plotted against the logarithm of the compound concentrations. The compounds were tested in triplicates per plate and mean values were plotted in Excel XLfit to determine IC50 values, percentage of maximal inhibition and the Hill slopes.
(In general: Calcium flux is commonly read through the fluorescence of an indicator in the cells.)

As a reminder, the IC50 is the concentration that gives 50% inhibition. `O=C(O)c1cc(NC(=O)C2CC2c2ccc(Cl)cc2)cc(F)c1-c1cnn(C2CCC2)c1` (racemic) [Example 2, 5-({[2-(4-chlorophenyl)cyclopropyl]carbonyl}amino)-2-(1-cyclobutyl-1H-pyrazol-4-yl)-3-fluorobenzoic acid]: the IC50 reads like this: (absence of 0.1% BSA in assay buffer, read-out: hB1 free IC50) 22 nM; (presence of 0.1% BSA in assay buffer, read-out: hB1 IC50) 78 nM.
